For assay [1], the system named is C6 cells. Briefly: C6 tumor growth in nude mice, subcutaneous co-injection. The note with it: vs no treatment control (FIG. 12). The class given is in vivo, mouse. On the procedure: (§1) Tumor growth of B16 cells, C6 cells, or MDA435 cells in the presence or absence of ECM, and with or without cisplatin, were examined in nude mice. Cells, ECM and Cisplatin were injected simultaneously subcutaneously in the lower haunch of a nude mouse. Tumor growth was followed over time using photography, measurements of length and width, then finally by weight. FIGS. 8 and 9 show the growth of tumors from C6 cells in nude mice in the presence (FIG. 9) and absence (FIG. 8) of ECM on day 14 post-injection. FIGS. 10 and 11 show the growth of tumors from C6 cells in nude mice in the presence of ECM with cisplatin (FIG. 10) and cisplatin without ECM (FIG. 11) of ECM on day 14 post-injection.

For assay [2], the system named is MDA435 cells. Briefly: MDA435 tumor growth in nude mice, subcutaneous co-injection. The class given is in vivo, mouse. On the procedure:
as §1

Assay [3] relates to lung cancer. The settings on record: cited from earlier work.

Like-named read-outs stand apart in the source and are kept apart here.

Consider `N.N.[Cl][Pt][Cl]` [cisplatin], for which, in assay [1], the “tumor growth over 18 days” value was “no growth”. The “tumor growth over 25 days” value in assay [2] (vs no treatment control (FIG. 14)) is “reduction in tumor mass to zero”. The tumor growth entry in assay [2] (vs no treatment control (FIGS. 13A-D)) was “reduced or no tumor growth”.
For the compound “MEDI4736: an engineered fully-human anti-PD-L1 antibody”, the ORR entry in assay [3] (PD-L1+ patients) is “up to 39%”; in assay [3] (PD-L1 negative patients), 5%; in assay [3] (all the patients with lung cancer), 13%.

The values above are taken from patent US11191780B2, “Extracellular matrix compositions for the treatment of cancer or immunological diseases” (ADAPTIVE BIOLOGIX, INC., priority 2015, dated 2021).
